Measurements: patent US20230119239A1, “OROMUCOSAL FILM COMPOSITIONS” (ReForm Therapeutics Ltd., priority 2021, published 2023)

Experiment: Ex vivo permeation of liraglutide solution through porcine sublingual mucosa, Franz diffusion cell
Assay type: in vitro ADME
Details: liraglutide 3 mg/mL + Transcutol® HP (10% solution) compared with liraglutide solution alone; 120 minutes; receptor phosphate buffer pH 8.5; FIG. 4
Protocol: The solution of liraglutide, and solution of liraglutide and permeation enhancer was tested. […] Samples were taken at 0 and 120 minutes to determinate the presence of liraglutide in the receptor chamber. The concentration level of liraglutide was determined using HPLC/MS method.

Structure (SMILES): CCCCCCCCCCCCCCCC(=O)N[C@@H](CCC(=O)NCCCC[C@H](NC(=O)[C@H](C)NC(=O)[C@H](C)NC(=O)[C@H](CCC(N)=O)NC(=O)CNC(=O)[C@H](CCC(=O)O)NC(=O)[C@H](CC(C)C)NC(=O)[C@H](Cc1ccc(O)cc1)NC(=O)[C@H](CO)NC(=O)[C@H](CO)NC(=O)[C@@H](NC(=O)[C@H](CC(=O)O)NC(=O)[C@H](CO)NC(=O)[C@@H](NC(=O)[C@H](Cc1ccccc1)NC(=O)[C@@H](NC(=O)CNC(=O)[C@H](CCC(=O)O)NC(=O)[C@H](C)NC(=O)[C@@H](N)Cc1cnc[nH]1)[C@@H](C)O)[C@@H](C)O)C(C)C)C(=O)N[C@@H](CCC(=O)O)C(=O)N[C@@H](Cc1ccccc1)C(=O)N[C@H](C(=O)N[C@@H](C)C(=O)N[C@@H](Cc1c[nH]c2ccccc12)C(=O)N[C@@H](CC(C)C)C(=O)N[C@H](C(=O)N[C@@H](CCCNC(=N)N)C(=O)NCC(=O)N[C@@H](CCCNC(=N)N)C(=O)NCC(=O)O)C(C)C)[C@@H](C)CC)C(=O)O [liraglutide]
- permeation of liraglutide through sublingual mucosa ex vivo (in words): significantly increased permeation
